# ChEMBL document CHEMBL1126071, “Cyclic pentapeptide endothelin antagonists with high ETA selectivity. Potency- and solubility-enhancing modifications” (J Med Chem, 1992)
# Residues, ends and D or L forms follow the SMILES beside them.
# Target: T1, Endothelin-1 receptor (Sus scrofa, UniProt Q29010)
# T1 sequence (Q29010 whole entry): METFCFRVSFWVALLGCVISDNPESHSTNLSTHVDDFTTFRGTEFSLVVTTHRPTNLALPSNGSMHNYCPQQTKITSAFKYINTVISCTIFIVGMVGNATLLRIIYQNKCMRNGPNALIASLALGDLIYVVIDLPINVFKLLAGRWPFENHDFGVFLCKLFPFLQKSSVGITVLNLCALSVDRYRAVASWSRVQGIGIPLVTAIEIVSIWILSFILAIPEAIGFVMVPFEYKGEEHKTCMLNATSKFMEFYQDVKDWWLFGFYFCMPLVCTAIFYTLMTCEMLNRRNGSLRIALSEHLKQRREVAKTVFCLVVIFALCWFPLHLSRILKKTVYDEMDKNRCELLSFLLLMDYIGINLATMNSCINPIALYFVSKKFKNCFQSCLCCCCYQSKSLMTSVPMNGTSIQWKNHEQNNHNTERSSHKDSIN
# Assay: Binding activity against Endothelin A receptor of Porcine aortic smooth muscle membranes
row,Structure (SMILES),IC50 max [nM]
1,"CC(C)C[C@@H]1NC(=O)[C@@H](C(C)C)NC(=O)[C@@H]2CCCN2C(=O)[C@@H](CC(=O)O)NC(=O)[C@@H](Cc2c[nH]c3ccccc23)NC1=O (HELM PEPTIDE1{L.[dW].[dD].P.[dV]}$PEPTIDE1,PEPTIDE1,1:R1-5:R2$$$V2.0)",22
2,"CC(C)C[C@@H]1NC(=O)[C@@H](C(C)C)NC(=O)CN(C)C(=O)[C@@H](CC(=O)O)NC(=O)[C@@H](Cc2c[nH]c3ccccc23)NC1=O (HELM PEPTIDE1{L.[dW].[dD].[Sar].[dV]}$PEPTIDE1,PEPTIDE1,1:R1-5:R2$$$V2.0)",32
3,"CC(C)C[C@@H]1NC(=O)[C@@H](C(C)C)NC(=O)[C@H](C)N(C)C(=O)[C@@H](CC(=O)O)NC(=O)[C@@H](Cc2c[nH]c3ccccc23)NC1=O (HELM PEPTIDE1{L.[dW].[dD].[meA].[dV]}$PEPTIDE1,PEPTIDE1,1:R1-5:R2$$$V2.0)",34
4,"CC(C)C[C@@H]1NC(=O)[C@@H](C(C)C)NC(=O)[C@@H]2CCCN2C(=O)[C@@H](CCC(=O)O)NC(=O)[C@@H](Cc2c[nH]c3ccccc23)NC1=O (HELM PEPTIDE1{L.[dW].[dE].P.[dV]}$PEPTIDE1,PEPTIDE1,1:R1-5:R2$$$V2.0)",410
5,"CC(C)C[C@H]1C(=O)N[C@H](Cc2c[nH]c3ccccc23)C(=O)N[C@H](CC(=O)O)C(=O)N2CCC[C@H]2C(=O)N[C@H](C(C)C)C(=O)N1C (HELM PEPTIDE1{[meL].[dW].[dD].P.[dV]}$PEPTIDE1,PEPTIDE1,1:R1-5:R2$$$V2.0)",35

# The remaining lines, values ahead:
row,IC50 max [nM],Structure (SMILES)
1,1400,"CC[C@H](C)[C@H]1NC(=O)[C@H](C)NC(=O)[C@@H](CCC(=O)O)NC(=O)[C@@H](Cc2c[nH]c3ccccc23)NC(=O)[C@H](CC(C)C)NC1=O (HELM PEPTIDE1{A.[CC[C@H](C)[C@@H](N[*:1])C(=O)[*:2]].L.[dW].[dE]}$PEPTIDE1,PEPTIDE1,1:R1-5:R2$$$V2.0)"
2,110,"CC(C)C[C@@H]1NC(=O)[C@@H](C(C)C)NC(=O)[C@H](C)NC(=O)[C@@H](CC(=O)O)NC(=O)[C@@H](Cc2c[nH]c3ccccc23)NC1=O (HELM PEPTIDE1{A.[dV].L.[dW].[dD]}$PEPTIDE1,PEPTIDE1,1:R1-5:R2$$$V2.0)"
3,3000,"CC(C)C[C@@H]1NC(=O)[C@@H](C(C)C)NC(=O)[C@H](C)NC(=O)[C@@H](CCC(=O)O)NC(=O)[C@@H](Cc2c[nH]c3ccccc23)NC1=O (HELM PEPTIDE1{A.[dV].L.[dW].[dE]}$PEPTIDE1,PEPTIDE1,1:R1-5:R2$$$V2.0)"
4,8500,"CC(C)[C@H]1NC(=O)[C@H](C)NC(=O)[C@@H](CC(=O)O)NC(=O)[C@@H](Cc2c[nH]c3ccccc23)NC(=O)[C@@H]2CCCN2C1=O (HELM PEPTIDE1{A.[dV].P.[dW].[dD]}$PEPTIDE1,PEPTIDE1,1:R1-5:R2$$$V2.0)"
